Reference: the NIST ThermoML archive (doi:10.1016/j.jct.2007.09.007)

Assay: xn = mol fraction of the nth substance listed
Settings: 100 kPa, Liquid

C1COCCO1 [1,4-dioxane] + CC#N
mass density [kg/m3]
Settings | 288.15 K | 293.15 K | 298.15 K | 303.15 K
x1 = 0.0046 | 789.4 | 784.08 | 778.69 | 773.26
x1 = 0.0101 | 791.73 | 786.38 | 780.98 | 775.56
x1 = 0.0249 | 797.92 | 792.61 | 787.21 | 781.78
x1 = 0.0336 | 801.42 | 796.07 | 790.67 | 785.24
x1 = 0.0497 | 808.04 | 802.72 | 797.32 | 791.89
x1 = 0.0627 | 813.27 | 807.95 | 802.55 | 797.13
x1 = 0.1106 | 831.43 | 826.1 | 820.71 | 815.28
x1 = 0.1643 | 850.48 | 845.16 | 839.75 | 834.33
x1 = 0.2127 | 866.78 | 861.44 | 856.05 | 850.62
x1 = 0.2853 | 889.43 | 884.08 | 878.67 | 873.24
x1 = 0.3355 | 904 | 898.64 | 893.23 | 887.8
x1 = 0.4341 | 930.27 | 924.89 | 919.46 | 914.02
x1 = 0.4807 | 941.65 | 936.29 | 930.86 | 925.4
x1 = 0.5277 | 952.67 | 947.29 | 941.85 | 936.38
x1 = 0.5828 | 964.93 | 959.51 | 954.06 | 948.58
x1 = 0.6385 | 976.54 | 971.14 | 965.66 | 960.16
x1 = 0.6845 | 985.67 | 980.25 | 974.76 | 969.25
x1 = 0.7278 | 993.97 | 988.54 | 983.03 | 977.5
x1 = 0.777 | 1002.84 | 997.35 | 991.82 | 986.28
x1 = 0.8181 | 1010.08 | 1004.61 | 999.06 | 993.5
x1 = 0.8703 | 1018.77 | 1013.28 | 1007.7 | 1002.12
x1 = 0.9145 | 1025.86 | 1020.33 | 1014.73 | 1009.11
x1 = 0.9604 | 1032.84 | 1027.29 | 1021.66 | 1016.03
x1 = 0.9652 | 1033.57 | 1027.98 | 1022.35 | 1016.71
x1 = 0.9757 | 1035.18 | 1029.58 | 1023.93 | 1018.3
x1 = 0.9817 | 1036.07 | 1030.46 | 1024.82 | 1019.17
x1 = 0.99 | 1037.29 | 1031.66 | 1025.99 | 1020.36
x1 = 0.9954 | 1038.08 | 1032.48 | 1026.83 | 1021.18
